Test results taken from patent publication US10709764B2, “Use of compounds with thrombopoietic activity to promote bone growth and healing” (Osteofuse, Inc., priority 2010, dated 2020).

What was measured:
[1] = system: C57BL/6 bone marrow macrophages (BMMs); assay: Osteoclast formation from bone marrow macrophages cultured with M-CSF and RANKL, TRAP staining; assay type: cell-based, mouse
Description: FIG. 2. Bar graph showing C57BL/6 bone marrow macrophages (BMMs) were cultured with M-CSF (30 ng/ml) and RANKL (50 ng/ml). While culturing C57BL/6 BMMs with M-CSF and RANKL (no TPO) results in the generation of mature TRAP^+ multinucleated osteoclasts (OCs) (>3 nuclei), culturing these cells with TPO (0.1-100 ng/ml) enhances the number OCs by >2-fold. *p<0.05
FIG. 3A. Representative micrograph of cultures of BMMs stimulated with M-CSF (30 ng/ml) and RANKL (50 ng/ml).
FIG. 3B. Representative micrograph of cultures of BMMs stimulated with M-CSF (30 ng/ml) and RANKL (50 ng/ml).

[2] = system: critical sized femoral defect; assay: Mouse critical sized femoral defect with scaffold, x-ray follow-up; assay type: in vivo, C57BL/6 male mice
Source text: A critical sized femoral defect was created in the right femur of ten-week old C57BL/6 male mice. Our scaffold was inserted into the defect site. […] Referring now to FIG. 6, a critical sized femoral defect was created in the right femur of ten week old C57BL/6 male mice. A scaffold was inserted into the defect site.

[3] = system: critical sized defect in the rat femur; assay: Long Evans rat femur gap model, scaffold in 5 mm segmental defect; assay type: in vivo, Long Evans rats
Source text: A pilot study utilizing the Long Evans rat femur gap model which has been approved by the Laboratory Animal Care and Usage Committee (IACUC) at Indiana University was used to test a new method for repairing bone gaps. In brief, tube shape scaffolds with 4 mm external diameter, 2 mm internal diameter and 5 mm in height were manufactured from poly(propylene) fumarate/tricalcium phosphate. […] In the control group, the scaffolds were left untreated (n=3/group). Segmental defects of 5 mm were created in the right femurs of male Long Evans rats. The defect was filled with a 5 mm scaffold and secured with an intramedullary K-wire placed in retrograde fashion. Femurs were imaged by x-ray to assure proper placement and integrity of the scaffold. The rats were then imaged using x-ray at three week intervals to assess continued healing. At post-operative weeks 6 and 15, rats were euthanized and femurs analyzed by x-ray, microCT, and histology.
At 15 weeks, mineralized callus was seen bridging the two bone ends. In some areas adjacent to the scaffolds, isolated patches of cartilage with hypertrophic chondrocytes were observed, indicating the tissues were undergoing endochondral bone formation.

Substance: thrombopoietin [TPO]
- mature multinucleated OCs developed (TRAP staining) ([1]; TPO 100 ng/ml, M-CSF 30 ng/ml, RANKL 50 ng/ml): Significantly more OCs developed
- enhancement of the number of mature TRAP+ multinucleated osteoclasts (OCs) ([1]; TPO 0.1-100 ng/ml, M-CSF 30 ng/ml, RANKL 50 ng/ml, vs no TPO, p<0.05): > 2 fold
- increase of osteoclastogenesis ([1]; osteoclast progenitors treated with TPO in vitro): up to 5 fold
- bridging callus formation (x-ray) ([2]; 2 weeks postoperatively, TPO 1 μg, BMP-2 4 μg in scaffold): remain unbridged
- bridging callus formation (x-ray) ([2]; 4-6 weeks postoperatively, TPO 1 μg in scaffold): have bridged
- restoration of bone contour compared with BMP-2 scaffolds ([2]; 4-6 weeks, TPO 1 μg vs BMP-2 4 μg): better restores the original contour of the bone
- healing of critical sized defect (microCT) ([3]; 10 μg in scaffold, post-operative week 15, n=3/group): robustly healed
- cortex and trabeculae of the callus compared to callus induced by BMP-2 ([3]; 10 μg in scaffold, week 15, BMP-2 from an earlier study): thicker
- remodeling compared with BMP-2 ([3]; 15 weeks post-operative, μCT (FIG. 5)): more extensive remodeling
